Measured values as given in ChEMBL document CHEMBL1201862, “PubChem BioAssay data set” (2004).
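Compound exposure: 48 hours, 5 concentrations, 96-well plates. At the GI50, growth is halved.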 The source made the active and inactive calls. Rule as the data show it: active = GI50 up to about 1.1 µM and inactive = higher.

Key:
Assay in all cases: DTP human tumour cell line panel, 48 h
SK-MEL-2 = test system: SK-MEL-2
SN12C = test system: SN12C
ACHN = test system: ACHN
OVCAR-8 = test system: OVCAR-8
EKVX = test system: EKVX
OVCAR-5 = test system: OVCAR-5
HCT-15 = test system: HCT-15
SR = test system: SR
UO-31 = test system: UO-31
SW-620 = test system: SW-620
NCI/ADR-RES = test system: NCI/ADR-RES
NCI-H522 = test system: NCI-H522
TK-10 = test system: TK-10
Malme-3M = test system: Malme-3M
M14 = test system: M14
HCT-116 = test system: HCT-116
HCC 2998 = test system: HCC 2998
U-251 = test system: U-251
CCRF-CEM = test system: CCRF-CEM
MDA-MB-231 = test system: MDA-MB-231

Compound	GI50 (SK-MEL-2)	GI50 (SN12C)	GI50 (ACHN)	GI50 (OVCAR-8)	GI50 (EKVX)	GI50 (OVCAR-5)	GI50 (HCT-15) [µM]	GI50 (SR)	GI50 (UO-31)	GI50 (SW-620)	GI50 (NCI/ADR-RES)	GI50 (NCI-H522)	GI50 (TK-10)	GI50 (Malme-3M)	GI50 (M14)	GI50 (HCT-116)	GI50 (HCC 2998)	GI50 (U-251)	GI50 (CCRF-CEM)	GI50 (MDA-MB-231)
Nc1ccccc1SCc1csc(-c2ccc(Cl)cc2)n1	16.4 µM (inactive)	16.6 µM (inactive)	25.6 µM (inactive)	30.5 µM (inactive)	25.9 µM (inactive)	39.1 µM (inactive)	26.1	6.61 µM (inactive)	15.8 µM (inactive)	29.2 µM (inactive)	21.5 µM (inactive)	10.7 µM (inactive)	38.1 µM (inactive)	20.3 µM (inactive)	17.4 µM (inactive)	29 µM (inactive)	16.4 µM (inactive)	20.3 µM (inactive)	5.37 µM (inactive)	21.3 µM (inactive)
O=C(O)Cc1ccccc1 [PHENYLACETIC ACID]	> 100 µM (inactive)	> 100 µM (inactive)	> 100 µM (inactive)	> 100 µM (inactive)	> 100 µM (inactive)	> 100 µM (inactive)	> 100	> 1000 µM (inactive)	> 100 µM (inactive)	> 100 µM (inactive)	> 100 µM (inactive)	> 100 µM (inactive)	> 100 µM (inactive)	> 100 µM (inactive)	> 100 µM (inactive)	> 100 µM (inactive)	> 100 µM (inactive)	> 100 µM (inactive)	> 100 µM (inactive)	> 100 µM (inactive)
